From US20090203877A1, “X-RAY-DENSE CONJUGATE” (Eberhard-Karls-Universitaet Tuebingen Universitaetsklinkum, priority 2006, published 2009)

System: human malignant U373 glioma cells
Experiment: Computer tomography, signal density of cell pellets
Type: cell-based
Procedure: For CT and FACS human U373 glioma cells were grown under the same conditions in 75 cm^2 culture flasks (Corning Costar, Bodenheim, Germany) (70% confluency). Accutase™ (PAA laboratories, Pasching, Austria) was added to achieve detachment of the cells which were harvested and subsequently aliquoted into Eppendorf tubes (6×10^6 cells per tube). As in the investigations performed by fluorescence microscopy, the cells in the first tube served as a control (PBS only). The cells in the other tubes were incubated with 260 μM Ultravist, 260 μM TIBA in PBS and 26 μM, 260 μM and 2.6 mM conjugates 1-4 in PBS. After a 20 minute incubation period at 37° C. in an atmosphere of 5% CO2, the cells were washed three times in PBS and centrifuged at 800 rpm for 5 minutes.
The inner ear spiral CT protocol consisted of: tube voltage 120 KV, effective mAs 550, time of imaging TI: 1.5, SL 0.75/0.75/4.5, FOV: 50 0/52, kernel: U70, window: intervertebral disc.
3D-images were obtained using InSpace Software (Syngo CT 2006G) (Siemens AG, Erlangen, Germany).
After an incubation of 20 minutes at 37° C./5% CO2 the cells were washed three times with PBS buffer and centrifuged at 800 rpm (rounds per minute) for 5 minutes. The fluorescence was measured in Becton Dickinson FACSCalibur as described under 1.4. The computer tomography was performed as described under 1.5.1. The examinations were repeated two times. […]
An Orbita CT spiral was used: tube voltage 120 KV, effective mAs 550, time of imaging TI: 1.5, SL 0.75/0.75/4.5, FOV: 50 0/52, GT: 0.0, kernel: U70, window: intervertebral disc. 3D images were made with the InSpace Software (Syngo CT 2006G) (Siemens AG, Erlangen, Germany). […]

## PKKKRKVK(FITC)GGK(TIBA) (FITC, GGK linker, TIBA) [conjugate 1, FITC-labelled correct NLS of the SV 40 T antigen with TIBA]
26 μM, 20 min
  CT signal density of cell pellets: only low signal density values
260 μM, 20 min
  CT signal density of cell pellets: significant increase in signal density
2.6 mM, 20 min
  CT signal density of cell pellets: significant increase in signal density
Varying concentrations (26 μM, 260 μM and 2.6 mM) and PBS alone
  CT signal density of cell pellets: did result in differences in signal densities
